Where two headings read alike, the source gives them in different places. One block for each molecule: values may come before it.
Columns and labels:
[1] = rat, in vivo
Procedure: (§1) SD-JCL male rats with an average body weight of 250 g were used as test animals. Under pentobarbital anesthesia, the abdomen of each animal was clipped off hairs (20 cm^2: 5 x 4 cm) with an electric clipper and the sample was applied to the denuded area. Using 5 rats, 0.12 ml of venous blood was taken from the tail vein 1, 2, 4 and 6 hours after application of the sample. Each blood specimen was centrifuged and 0.05 ml of the plasma was put in a polyethylene minivial containing 5 ml of a toluenic scintillator and stirred. After standing, the total radioactivity of the plasma sample was measured with a β-ray scintillation spectrometer and the TRH equivalent concentration of the plasma (µg.eq./ml) was calculated.
(§2) The percutaneous absorption of TRH tartrate was evaluated in AUC6 (the area under the blood concentration-time curve during 0 to 6 hours).

[2] = rat, in vivo; remark: listed apart in the source
Procedure: 3 mg of clonidine, an antihypertensive drug, was dissolved in a mixture of 20 mg of lauric acid, one of the percutaneous absorption promoting agents according to this invention, and 177 mg of propylene glycol to prepare a coating sample.
A percutaneous absorption test was carried out in male SD-JCL rats with an average body weight of 250 g. Under pentobarbital anesthesia, the abdomen of each rat was clipped of hairs with an electric clipper and the sample was coated on the denuded abdominal area (5 x 4 cm).
The collected venous blood was centrifuged and 0.2 ml of the plasma was extracted with 1 ml of 0.01 N-NaOH and 5 ml of chloroform. From a 4 ml portion of the chloroform layer, the chloroform was distilled off and the residue was dissolved by addition of 0.2ml of 0.05 M sodium acetate-acetonitrile-tetrahydrofuran (70:30:0.2, v/v). A 50 µl portion of the solution was applied to a liquid chromatograph to determine the concentration of clonidine. The µ-Bondapak Cl8 column was used for this liquid chromatography. The percutaneous absorption of clonidine was evaluated in terms of AUC6 (area under the blood concentration-time curve of clonidine during 0 to 6 hours) and its multiple over the [formula] of the preparation of Comparative Example 1 was calculated.

[3] = Percutaneous absorption test in rats, TRH equivalent plasma concentration from total radioactivity (3H-labeled TRH)
in vivo = conditions: male, SD-JCL, rat, topical or ocular
[4] = Percutaneous absorption test in rats, TRH equivalent plasma concentration from total radioactivity (3H-labeled TRH); assay type: in vivo, SD-JCL male rats; conditions: additive in propylene glycol preparation of TRH tartrate (Comparative Example 2)
Procedure: as §1, §2

- AUC6 (the area under the blood concentration-time curve during 0 to 6 hours) [1]: 0.3 ug.eq.hr/ml
Molecule: NC(=O)C1CCCN1C(=O)C(Cc1c[nH]cn1)NC(=O)C1CCC(=O)O1 [DN-1417, y-butyrolactone-y-carbonyl-L-histidyl-L-prolinamide]

- effectiveness of the percutaneous absorption promoting agent for clonidine [2]: ineffective
Molecule: CCCCCCCC/C=C\CCCCCCCC(N)=O [oleamide]

Molecule: L-pyroglutamyl-L-histidyl-L-prolinamide [TRH]
- multiple of the AUC6 value over Comparative Example 1 ([3]; Example 5 (TRH, 30 mg oleic acid) vs Comparative Example 1): 8.7 times
- AUC6 (the area under the blood concentration-time curve during 0 to 6 hours) ([3]; Example 5: 0.5 mg TRH in 169.5 mg propylene glycol + 30 mg oleic acid): 1.4 µg.eq.hr/ml

- AUC(0-t) (in vivo): 0.5 ng·h/mL
Molecule: CCNC(=O)[C@@H]1CCCN1C(=O)[C@H](CCCNC(=N)N)NC(=O)[C@H](CC(C)C)NC(=O)[C@@H](CC(C)C)NC(=O)[C@H](Cc1ccc(O)cc1)NC(=O)[C@H](CO)NC(=O)[C@H](Cc1c[nH]c2ccccc12)NC(=O)[C@H](Cc1c[nH]cn1)NC(=O)[C@@H]1CCC(=O)N1 [TAP-144]

- effectiveness of the percutaneous absorption promoting agent for clonidine [2]: ineffective
Molecule: CCCCCCCCCCCC(=O)O [lauric acid]

Molecule: L-pyroglutamyl-L-histidyl-L-prolinamide [TRH tartrate]
- AUC6 (the area under the blood concentration-time curve during 0 to 6 hours) ([3]; Comparative Example 1 (TRH tartrate in propylene glycol, no absorption promoter), restated in Example 5): 0.16 ug.eq.hr/ml
- AUC6 (the area under the blood concentration-time curve during 0 to 6 hours) ([3]; Comparative Example 6: 0.8 mg TRH tartrate in 179.2 mg propylene glycol + 20 mg caprylyl alcohol (C8)): 0.19 pg.eq/ml
- multiple of the AUC6 value over the control preparation of Comparative Example 1 ([3]; Example 1 preparation (20 mg oleic acid) vs Comparative Example 1 (no absorption promoter)): approximately 8 times
- multiple of the AUC6 value over the control preparation of Comparative Example 1 ([3]; Example 3 (20 mg lauric acid, ethanol wiping) vs Comparative Example 1): 14 times
- AUC6 (the area under the blood concentration-time curve during 0 to 6 hours) ([3]; Example 3: 0.8 mg TRH tartrate in 179.2 mg propylene glycol + 20 mg lauric acid, site wiped 5 times with ethanol-sanitary cotton before application): 2.22 µg.eq.hr/ml
- multiple of the AUC6 value over the control preparation of Comparative Example 1 ([3]; Example 4 (20 mg lauric acid, horny layer stripped) vs Comparative Example 1): 38 times
- AUC6 (the area under the blood concentration-time curve during 0 to 6 hours) ([3]; Example 4: 0.8 mg TRH tartrate in 179.2 mg propylene glycol + 20 mg lauric acid, horny layer stripped 3 times with cellophane tape before application): 6.06 ug.eq.hr/ml

- absorption promoting effect of the additive [4]: no absorption promoting effect
Molecule: CCCCCCCCCCCCCC(=O)OC(C)C [isopropyl myristate]

- effectiveness of the percutaneous absorption promoting agent for clonidine [2]: ineffective
Molecule: CCCCCCCC/C=C\CCCCCCCC(=O)O [oleic acid]

- effectiveness of the percutaneous absorption promoting agent for clonidine [2]: ineffective
Molecule: CCCCCCCCCCCCN [laurylamine]

Reference: EP0127426A1, “Percutaneous pharmaceutical compositions for external use” (Takeda Chemical Industries, Ltd., priority 1983, dated 1984)
